Reference: patent US20210322509A1, “Methods for Reducing Perinatal Morbidity and / or Mortality” (CHU SAINTE-JUSTINE, priority 2016, published 2021)
Non-standard residues stand in square brackets, D forms with d. Residues, ends and D or L forms follow the SMILES beside them. ξ: configuration not given here. dThr(3ξ) = CC(O)[C@@H](N)C(=O)O

Tests used:
[1] = test system: IL-1β, IL-6, IL-8 and PGF2α in amniotic fluid; assay: ELISA of pro-inflammatory mediators in amniotic fluid 24 h after IL-1β injection; format: in vivo, mice; conditions: for levels of all pro-inflammatory mediators (IL-1β, IL-6, IL-8, PGF2α) in amniotic fluid: relative to vehicle
Description: FIGS. 2A to 2D show the levels of the pro-inflammatory mediators IL-1β (FIG. 2A), IL-6 (FIG. 2B), IL-8 (FIG. 2C) and PGF2a (FIG. 2D) in the amniotic fluid (AF) collected 24 h after IL-1β injection and treatment with vehicle, Compound 1 or Kineret, as assessed by ELISA. One-way ANOVA compared to IL-1β+Veh. **p<0.01, ***p<0.001. STATS: n=4; 4 gestational sacs from 2 animals in each groups.
Intrauterine […] perinatal inflammation model. Timed-pregnant CD-1 mice at 16.5 days of gestation were steadily anesthetized with an isoflurane mask. After body hair removal from the peritoneal area, a 1.5 cm-tall median incision was performed with surgical scissors in the lower abdominal wall. The lower segment of the right uterine horn was then exposed and 1 μg of IL-1β was injected between two fetal membranes with care of not entering the amniotic cavity. The abdominal muscle layer was sutured and the skin closed with clips. One hundred μL of Compound 1 (1 mg/Kg/12 h), Kineret® (4 mg/Kg/12 h) or vehicle (sterile water) was injected subcutaneously in the neck 30 minutes before stimulation with IL-1β (to allow distribution of drugs to target tissues). Mice delivery was assessed every hour until term (G19-G19.5). Immediately after delivery, neonatal survival was assessed. Some pregnant mice were sacrificed before birth (24 h after the surgery) to either 1) perform caesarean section and photograph fetuses; 2) collect amniotic fluids; and 3) collect placentas. Only tissues and fluids from gestational sacs closer to the cervical end of the uterus were collected to ensure proximity with the IL-1β injection site. Tissues and fluids were snap-frozen in liquid nitrogen and kept at −80° C. for subsequent RNA purification or protein quantification by ELISA.
Murine ELISA assays. […] The enzymatic reaction was stopped after 30 minutes and the plate was read at 450 nm, with wavelength correction set to 570 nm.

[2] = test system: IL-1β, IL-6, IL-8 and PGF2α in fetal brain tissue; assay: ELISA of pro-inflammatory mediators in brain of neonates; format: in vivo, mice; conditions: neonates from IL-1β-treated dams
Description: FIGS. 8A to 8D show the levels of the pro-inflammatory mediators IL-1β (FIG. 8A), IL-6 (FIG. 8B), IL-8 (FIG. 8C) and PGF2a (FIG. 8D) in fetal brain tissue of neonates from sham and IL-1β-treated dams administered with vehicle, Compound 1 or Kineret, as assessed by ELISA. One-way ANOVA compared to IL-1β+Veh. *p<0.05, **p<0.01, ***p<0.001. n=4 pups in each groups.
Murine ELISA assays. The ELISA assay was performed using mouse Quantikine™ ELISA kits against IL-1β or IL-6 (R&D Systems®; #MLBOOC, M6000B), IL-8 and PGF2α (MyBioSource®; #MBS261967, #MBS264160) according to the manufacturer's instructions. Briefly, tissues (lungs, intestines and brains) collected at birth were homogenized in RIPA buffer containing proteases and 50 μL of either lung, intestine, or brain samples, recombinant mouse IL-1β, IL-6, IL-8 or PGF2α positive control or decreasing concentrations of a recombinant mouse IL-1β, IL-6, IL-8 or PGF2α standard were loaded into a 96-well plate pre-coated with a monoclonal anti-mouse IL-1β antibody and incubated for 2 hours at ambient temperature. Wells were washed 5 times and incubated with an enzyme-linked mouse polyclonal antibody specific to murine IL-1β for 2 hours. After another washing step, a substrate solution was added. The enzymatic reaction was stopped after 30 minutes and the plate was read at 450 nm, with wavelength correction set to 570 nm.

Compound	IL-8 levels in amniotic fluid, extent of effect ([1]; compared with compound 1)	levels of all pro-inflammatory mediators (IL-1β, IL-6, IL-8, PGF2α) in amniotic fluid [1]	increased IL-1β and IL-6 levels in the brain [2]	increased IL-8 levels in the brain [2]
Kineret: recombinant form of the human interleukin-1 receptor antagonist (IL-1Ra), purchased from Swedish Orphan Biovitrum AB	at a lower extent relative to compound 1	only had a significant effect on IL-8 levels	ineffective at significantly reducing	although significant, was weaker than that obtained with compound 1
CC(C)C[C@@H](NC(=O)[C@@H](CCC(=O)O)NC(=O)[C@H](NC(=O)[C@H](NC(=O)[C@@H](Cc1ccc(O)cc1)NC(=O)[C@H](N)CCCNC(=N)N)C(C)O)C(C)C)C(=O)N[C@H](C)C(N)=O (stereo partly drawn) [compound 1] (H-[dR][dY][dThr(3ξ)][dV][dE][dL][dA]-NH2)		significant reduction	alleviated this effect	alleviated this effect
